Test: Plasma concentration in po dosed patient after 6 days by HPLC analysis
Assay type: ADME, organism-based
Details: human

With `C[C@@H](c1ncncc1F)[C@](O)(Cn1cncn1)c1ccc(F)cc1F` [VORICONAZOLE] the concentration at 144 h was < 120 ng/mL.

Source: ChEMBL document CHEMBL1649167, “Serial plasma voriconazole concentrations after allogeneic hematopoietic stem cell transplantation” (Antimicrob Agents Chemother, 2009)
